The text below walks through data of ChEMBL document CHEMBL1145821, “Dihydrofolate reductase mutant with exceptional resistance to methotrexate but not to trimetrexate” (J Med Chem, 2003).

For experiment [1], the target named is T1, Dihydrofolate reductase (Mus musculus, UniProt P00375).
T1 sequence (P00375 whole entry): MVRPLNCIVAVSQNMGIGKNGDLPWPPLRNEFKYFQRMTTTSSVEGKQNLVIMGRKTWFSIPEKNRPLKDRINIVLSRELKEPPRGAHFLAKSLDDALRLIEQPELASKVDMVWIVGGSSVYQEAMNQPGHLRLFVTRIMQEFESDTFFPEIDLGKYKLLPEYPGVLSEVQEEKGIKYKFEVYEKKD
The experiment can be described thus: Inhibitory constant for F31A/F34A murine dihydrofolate reductase (DHFR).

Experiment [2] deals with T2, Dihydrofolate reductase (Mus musculus) (UniProt P00375).
T2 sequence (whole entry): T1 sequence (P00375 whole entry)

The target in experiment [3] is T3, Dihydrofolate reductase (Mus musculus, UniProt P00375). The experiment can be described thus: Combined effect of active site mutation F31A and F34A on inhibitory effect for F31A/F34A murine dihydrofolate reductase (DHFR).
Experiment [4] has as its target T3, Dihydrofolate reductase. Put plainly: Combined effect of active site mutation F31A and F34A on inhibitory effect for murine Wild-type dihydrofolate reductase (DHFR).
In experiment [5] the target is T1, Dihydrofolate reductase. Put plainly: Inhibitory constant for murine Wild-type dihydrofolate reductase (DHFR).

Turning to `CN(Cc1cnc2nc(N)nc(N)c2n1)c1ccc(C(=O)NC(CCC(=O)NCCCCCCCCCCCCNC(=O)CCC(NC(=O)c2ccc(N(C)Cc3cnc4nc(N)nc(N)c4n3)cc2)C(=O)O)C(=O)O)cc1` (centres undefined), the Ki on Dihydrofolate reductase [1] was determined as 212 nM. The same compound gave a Kimut/Kiwt in experiment [2] of 4410. Moreover, the Ki·kcat/Km was found to be 0.112 s⁻¹ on Dihydrofolate reductase [3] and 0.00126 s⁻¹ on Dihydrofolate reductase [4].

For `COc1cc(NCc2ccc3nc(N)nc(N)c3c2C)cc(OC)c1OC` [TRIMETREXATE], the inhibitory constant (Ki) on Dihydrofolate reductase [1] turned out to be 0.81 nM; on Dihydrofolate reductase [5] it was 0.06 nM. In experiment [2], this compound came in with a Kimut/Kiwt of 13.5. Moreover, the Ki·kcat/Km at Dihydrofolate reductase [3] is 0.00043 s⁻¹; on Dihydrofolate reductase [4], 0.00158 s⁻¹.
